Assay results reported in patent publication US10065990B2, “Cyclic peptide compound, and preparation method, pharmaceutical composition and use thereof” (HANGZHOU GUANYU BIO-MEDICAL CO., LTD, priority 2013, dated 2018).
Read-outs that look alike come from different tables or passages of the source.

Assays:
HDAC7 = molecular target: T1, HDAC7 (Homo sapiens, UniProt Q8WUI4); assay: HDAC biochemical activity measurement (fluorescent substrate deacetylation);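 further: fluorogenic deacetylation assay using acetyl-lysine substrate at 20 µM, enzyme and compound incubated 30 min at 37 °C, then developer added, fluorescence read at 360/460 nm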; details: HDAC7; 37° C. 30 minutes
T1 sequence (Q8WUI4 1-952): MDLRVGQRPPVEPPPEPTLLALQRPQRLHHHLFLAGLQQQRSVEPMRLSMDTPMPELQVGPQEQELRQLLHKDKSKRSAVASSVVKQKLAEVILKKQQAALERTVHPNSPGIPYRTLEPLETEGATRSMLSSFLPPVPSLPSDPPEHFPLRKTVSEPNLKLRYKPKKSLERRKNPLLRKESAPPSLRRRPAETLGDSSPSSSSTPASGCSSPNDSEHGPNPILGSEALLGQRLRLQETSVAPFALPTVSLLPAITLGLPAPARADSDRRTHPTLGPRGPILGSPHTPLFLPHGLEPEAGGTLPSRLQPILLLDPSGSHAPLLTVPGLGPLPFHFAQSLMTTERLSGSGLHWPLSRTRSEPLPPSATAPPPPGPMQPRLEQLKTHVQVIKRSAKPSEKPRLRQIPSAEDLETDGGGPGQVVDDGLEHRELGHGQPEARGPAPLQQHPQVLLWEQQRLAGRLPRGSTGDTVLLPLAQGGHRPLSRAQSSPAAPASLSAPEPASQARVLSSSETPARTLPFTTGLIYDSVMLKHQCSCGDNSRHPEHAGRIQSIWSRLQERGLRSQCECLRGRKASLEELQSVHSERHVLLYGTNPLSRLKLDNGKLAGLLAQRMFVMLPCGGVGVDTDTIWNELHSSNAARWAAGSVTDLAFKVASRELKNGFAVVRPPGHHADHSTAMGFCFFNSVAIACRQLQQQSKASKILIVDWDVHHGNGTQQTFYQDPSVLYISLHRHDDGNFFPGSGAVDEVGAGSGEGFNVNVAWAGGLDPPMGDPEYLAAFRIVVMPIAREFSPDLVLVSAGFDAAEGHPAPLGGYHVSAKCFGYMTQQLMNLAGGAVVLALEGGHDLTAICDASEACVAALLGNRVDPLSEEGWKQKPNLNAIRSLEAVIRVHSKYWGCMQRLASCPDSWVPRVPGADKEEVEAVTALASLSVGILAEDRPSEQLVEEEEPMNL

[1] = system: MCF-7 (human breast cancer cells); assay: MTT cancer cell growth inhibition; type: cell-based; details: Homo sapiens, MCF7, 72 h, 72 hours incubation, read-out: GI50 MCF
Outline: (§1)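 GI50 values come from MTT viability: after 72 h compound exposure (final 10^−5–10^−10 M, three wells each) of cells plated overnight at 1500/well in 10% FBS medium, MTT was given for 4 h. The DMSO-solubilised formazan was then measured at 570 nm.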

[2] = system: U937 (human leukemia cells); assay: MTT cancer cell growth inhibition; type: cell-based; details: Homo sapiens, U-937, 72 h, MTT, 72 hours incubation, read-out: GI50 U93
Outline: as §1

[3] = system: H1975 (non-small cell lung adenocarcinoma); assay: MTT cancer cell growth inhibition; type: cell-based; details: Homo sapiens, NCI-H1975, 72 h, MTT, 72 hours incubation, H1975 cells; read-out: GI50 H1975
Outline: as §1

[4] = system: Huh-7 (human hepatoma cells); assay: MTT cancer cell growth inhibition; type: cell-based; details: Homo sapiens, Huh-7, 72 h, MTT, 72 hours incubation, Huh-7 cells; read-out: GI50 Huh-7
Outline: as §1

[5] = system: HCC827 (human non-small cell lung cancer cells); assay: MTT cancer cell growth inhibition; type: cell-based; details: Homo sapiens, HCC827, 72 h, MTT, 72 hours incubation, HCC827 cells; read-out: GI50 HCC827
Outline: as §1

[6] = system: BGC-823 (human gastric cancer cells); assay: MTT cancer cell growth inhibition; type: cell-based; details: Homo sapiens, BGC-823, 72 h, MTT, 72 hours incubation, read-out: GI50 BG
Outline: as §1

[7] = system: PANC-1 (Pac-1, human pancreatic cancer cells); assay: MTT cancer cell growth inhibition; type: cell-based; details: Homo sapiens, PANC-1, 72 h, MTT, 72 hours incubation, read-out: GI50 PAN
Outline: as §1

[8] = system: lncap (prostate cancer cells); assay: MTT cancer cell growth inhibition; type: cell-based; details: Homo sapiens, LNCaP, 72 h, MTT, 72 hours incubation, read-out: GI50 lnca
Outline: as §1

[9] = system: A549 (human lung cancer cells); assay: MTT cancer cell growth inhibition; type: cell-based; details: Homo sapiens, A549, 72 h, MTT, 72 hours incubation, read-out: GI50 A54
Outline: as §1

[10] = system: DU145 (human prostate cancer cells); assay: MTT cancer cell growth inhibition; type: cell-based; details: Homo sapiens, DU-145, 72 h, MTT, 72 hours incubation, read-out: GI50 Du1
Outline: as §1

[11] = system: KBM-5 (human chronic myelogenous leukemia); assay: MTT cancer cell growth inhibition; type: cell-based; details: Homo sapiens, KBM5, 72 h, MTT, 72 hours incubation, KBM-5 cells; read-out: GI50 KBM-5
Outline: as §1

[12] = system: SGC-7901 (human gastric cancer cells); assay: MTT cancer cell growth inhibition; type: cell-based; details: Homo sapiens, SGC-7901, 72 h, MTT, 72 hours incubation, SGC-7901 cells; read-out: GI50 SGC-7901
Outline: as §1

[13] = system: K562 (human leukemia cells); assay: MTT cancer cell growth inhibition; type: cell-based; details: Homo sapiens, K562, 72 h, MTT, 72 hours incubation, K562 cells; read-out: GI50 K562
Outline: as §1

[14] = system: MDA-MB-231 (breast cancer cells); assay: MTT cancer cell growth inhibition; type: cell-based; details: Homo sapiens, MDA-MB-231, 72 h, read-out: GI50 MDA-MB-231, MTT, 72 hours incubation, MDA-MB-231 cells
Outline: as §1

[15] = system: MOLT-4 (human acute lymphoblastic leukemia cells); assay: MTT cancer cell growth inhibition; type: cell-based; details: Homo sapiens, MOLT-4, 72 h, MTT, 72 hours incubation, read-out: GI50 Mol
Outline: as §1

[16] = system: KBM5-T315I (human chronic myelogenous leukemia); assay: MTT cancer cell growth inhibition; type: cell-based; details: Homo sapiens, 72 h, MTT, 72 hours incubation, KBM5-T315I cells; read-out: GI50 KBM5-T315I
Outline: as §1

[17] = system: HT1080 (human fibrosarcoma cells); assay: MTT cancer cell growth inhibition; type: cell-based; details: Homo sapiens, HT-1080, 72 h, MTT, 72 hours incubation, read-out: GI50 HT1
Outline: as §1

[18] = system: Hela (human cervical cancer cells); assay: MTT cancer cell growth inhibition; type: cell-based; details: Homo sapiens, HeLa, 72 h, MTT, 72 hours incubation, read-out: GI50 Hela
Outline: as §1

[19] = system: Bel-7402 (human hepatoma cells); assay: MTT cancer cell growth inhibition; type: cell-based; details: Homo sapiens, Bel-7402, 72 h, MTT, 72 hours incubation, Bel-7402 cells; read-out: GI50 Bel-7402
Outline: as §1

[20] = system: N-87 (human gastric cancer cells); assay: MTT cancer cell growth inhibition; type: cell-based; details: Homo sapiens, 72 h, MTT, 72 hours incubation, N-87 cells; read-out: GI50 N-87
Outline: as §1

Compound | IC50 HDAC7 (HDAC7) | GI50 ([1]; MCF-7 cells) [nM] | GI50 ([2]; U937 cells) [nM] | GI50 [3] [nM] | GI50 [4] [nM] | GI50 [5] [nM] | GI50 ([6]; BGC-823 cells) [nM] | GI50 ([7]; PANC-1 cells) [nM] | GI50 ([8]; lncap cells) [nM] | GI50 ([9]; A549 cells) [nM] | GI50 ([10]; DU145 cells) [nM] | GI50 [11] [nM] | GI50 [12] [nM] | GI50 [13] [nM] | GI50 [14] [nM] | GI50 ([15]; MOLT-4 cells) [nM] | GI50 [16] [nM] | GI50 ([17]; HT1080 cells) [nM] | GI50 [19] [nM] | GI50 [20] [nM] | other results
CSc1cc2nc(c1)C(=O)NC(=C(C)C)C(=O)N[C@@H](C(C)C)C(=O)O[C@H](/C=C/CCSC(C)=O)CC(=O)NC2 [Compound 208] | no activity | 30 | 60 | 35 | 26 | 67 | 50 | 30 | 30 | 50 | 40 | 18 | 26 | 76 | 18 | 40 | 49 | 70 | 17 | 56 | GI50 ([18]; Hela cells): 80 nM
C/C=C1\NC(=O)c2cc(SC)cc(n2)CNC(=O)C[C@@H](/C=C/CCSC(C)=O)OC(=O)[C@H](Cc2cccc3ccccc23)NC1=O [Compound 199] | no activity | 80 | 30 | 78 | 35 | 47 | 90 | 10 | 40 | 40 | 50 | 17 | 67 | 81 | 51 | 30 | 29 | 40 | 42 | 27 | GI50 ([18]; Hela cells): 30 nM
C/C=C1\NC(=O)c2cc(F)cc(n2)CNC(=O)C[C@@H](/C=C/CCS)OC(=O)[C@H](C(C)C)NC1=O [Compound 107] | no activity |  |  | 57 | 24 | 13 |  |  |  |  |  | 72 | 27 | 38 | 27 |  | 41 |  | 53 | 35 | GI50 [1]: 30 nM; GI50 [2]: 30 nM; GI50 [6]: 30 nM; GI50 [7]: 80 nM; GI50 [8]: 30 nM; GI50 [9]: 40 nM; GI50 [10]: 30 nM; GI50 [15]: 30 nM; GI50 [17]: 80 nM; GI50 [18]: 60 nM
C/C=C1\NC(=O)c2nc(ccc2SC)CNC(=O)C[C@@H](/C=C/CCSC(C)=O)OC(=O)[C@H](C(C)C)NC1=O [Compound 165] | no activity | 30 | 50 | 12 | 28 | 43 | 20 | 70 | 20 | 30 | 60 | 41 | 76 | 57 | 53 | 40 | 34 | 60 | 30 | 32 | GI50 ([18]; Hela cells): 60 nM
C=C1NC(=O)c2nc(ccc2SC)CNC(=O)C[C@@H](/C=C/CCSC(C)=O)OC(=O)[C@H](C)NC1=O [Compound 210] | no activity | 30 | 20 | 25 | 22 | 56 | 10 | 50 | 50 | 50 | 30 | 52 | 105 | 86 | 72 | 50 | 49 | 20 | 47 | 27 | GI50 ([18]; Hela cells): 30 nM
C/C=C1\NC(=O)c2ccc(F)c(n2)CNC(=O)C[C@@H](/C=C/CCSC(=O)CCCCCCC)OC(=O)[C@H](C(C)C)NC1=O [Example 32] | no activity |  |  | 53 | 38 | 67 |  |  |  |  |  | 71 | 45 | 34 | 38 |  | 58 |  | 67 | 69 | GI50 [1]: 50 nM; GI50 [2]: 50 nM; GI50 [6]: 60 nM; GI50 [7]: 60 nM; GI50 [8]: 30 nM; GI50 [9]: 40 nM; GI50 [10]: 30 nM; GI50 [15]: 30 nM; GI50 [17]: 60 nM; GI50 [18]: 70 nM
C/C=C1\NC(=O)c2nc(ccc2SC)CNC(=O)C[C@@H](/C=C/CCSC(=O)CCCC)OC(=O)[C@H](C(C)C)NC1=O [Compound 156] | no activity | 20 | 20 | 18 | 35 | 43 | 50 | 50 | 30 | 30 | 80 | 17 | 45 | 31 | 63 | 10 | 33 | 80 | 23 | 65 | GI50 ([18]; Hela cells): 30 nM
